Structures can show the parent of a compound that is named as a salt. Where two headings read alike, the source gives them in different places.
Experiments:
[1] = biological target: T1, SARS-CoV-2 PLpro (nsp3 1564–1878) (Severe acute respiratory syndrome coronavirus 2, UniProt P0DTD1); assay: biochemical; parameters: FRET-quenched peptide (Pro3) cleavage by PLpro, 10 min pre-incubation, slope over 20 min, normalised to no-compound control; settings: high concentration screen, read-out: % of control remaining
[2] = biological target: T1, SARS-CoV-2 PLpro (nsp3 1564–1878); assay: biochemical; parameters: FRET-quenched peptide (Pro3) cleavage by PLpro, 10 min pre-incubation, slope over 20 min, normalised to no-compound control; settings: low concentration screen, read-out: % of control remaining

## CCC(=O)N1CCN(C(=O)c2ccccc2)CC1 [DM 235]
[1]; Well no.=453
  remaining activity at 3.75 µM: 96%
[2]; Well no.=453
  remaining activity at 1.25 µM: 96.3%

## C[C@H]1[C@H](C)CC[C@]2(C(=O)O)CC[C@]3(C)C(=CC[C@@H]4[C@@]5(C)C[C@@H](O)[C@H](O)[C@@](C)(CO)[C@@H]5[C@H](O)C[C@]43C)[C@H]12 [Madecassic acid]
[1]; Well no.=3657
  remaining activity at 3.75 µM: 104%
[2]; Well no.=3657
  remaining activity at 1.25 µM: 104%

## O=C1CC2(CCCC2)CC(=O)N1CCCCN1CCN(c2ncccn2)CC1 [Buspirone (hydrochloride)]
[1]; Well no.=8249
  remaining activity at 3.75 µM: 99.1%
[2]; Well no.=8249
  remaining activity at 1.25 µM: 101%

## O=C(O)[C@@H]1CCN1 [L-azetidine-2-carboxylic acid]
[1]; Well no.=103
  remaining activity at 3.75 µM: 104%
[2]; Well no.=103
  remaining activity at 1.25 µM: 105%

## COc1ccc(/C=C2\COc3ccc(C)cc3C2=O)cc1O [IMS2186]
[1]; Well no.=5394
  remaining activity at 3.75 µM: 97.5%
[2]; Well no.=5394
  remaining activity at 1.25 µM: 97.1%

## COc1cc([C@@H]2c3cc4c(cc3[C@H](O)[C@H]3COC(=O)[C@H]23)OCO4)cc(OC)c1OC [Podophyllotoxin]
[1]; Well no.=1002
  remaining activity at 3.75 µM: 92.3%
[1]; Well no.=3705
  remaining activity at 3.75 µM: 105%
[2]; Well no.=1002
  remaining activity at 1.25 µM: 91.2%
[2]; Well no.=3705
  remaining activity at 1.25 µM: 99.5%

## Cc1onc(-c2c(Cl)cccc2Cl)c1C(=O)N[C@@H]1C(=O)N2[C@@H]1SC(C)(C)[C@@H]2C(=O)O [Dicloxacillin Sodium]
[1]; Well no.=5360
  remaining activity at 3.75 µM: 89.6%
[2]; Well no.=5360
  remaining activity at 1.25 µM: 90.3%

## Nc1nc(Nc2ccccc2)nc2c1ncn2[C@@H]1O[C@H](CO)[C@@H](O)[C@H]1O [2-Phenylaminoadenosine]
[1]; Well no.=1213
  remaining activity at 3.75 µM: 106%
[2]; Well no.=1213
  remaining activity at 1.25 µM: 102%

## CN1C(=O)N[C@@H](Cc2c[nH]c3c(Cl)cccc23)C1=O [Necrostatin 2 (S enantiomer)]
[1]; Well no.=7166
  remaining activity at 3.75 µM: 94.3%
[2]; Well no.=7166
  remaining activity at 1.25 µM: 97.6%

## O=S(=O)(O)c1cc(O)ccc1O [Ethamsylate]
[1]; Well no.=6763
  remaining activity at 3.75 µM: 89.6%
[2]; Well no.=6763
  remaining activity at 1.25 µM: 103%

## CNC(=O)c1ccc2cc([C@@]3(O)CCn4cncc43)ccc2c1 [TAK-700 (Orteronel)]
[1]; Well no.=4725
  remaining activity at 3.75 µM: 96.7%
[2]; Well no.=4725
  remaining activity at 1.25 µM: 98.2%

## CCCCCCCCCCCCCCC(Br)C(=O)O (stereo not drawn) [2-bromohexadecanoic acid]
[1]; Well no.=5893
  remaining activity at 3.75 µM: 106%
[2]; Well no.=5893
  remaining activity at 1.25 µM: 106%

## C/C=C1\C[C@@H](C)[C@](O)(CO)C(=O)OCC2=CCN3CC[C@@H](OC1=O)[C@@H]23 [Retrorsine]
[1]; Well no.=3298
  remaining activity at 3.75 µM: 104%
[2]; Well no.=3298
  remaining activity at 1.25 µM: 99.9%

## C[N+](C)(C)CCOC(N)=O [Carbachol]
[1]; Well no.=32
  remaining activity at 3.75 µM: 99%
[2]; Well no.=32
  remaining activity at 1.25 µM: 95.6%

## CC[C@@H]1/C=C(\C)C[C@H](C)C[C@H](OC)[C@H]2O[C@@](O)(C(=O)C(=O)N3CCCC[C@H]3C(=O)O[C@H](/C(C)=C/[C@@H]3CC[C@@H](O)[C@H](OC)C3)[C@H](C)[C@@H](O)CC1=O)[C@H](C)C[C@@H]2OC [Ascomycin]
[1]; Well no.=6638
  remaining activity at 3.75 µM: 98.9%
[1]; Well no.=7410
  remaining activity at 3.75 µM: 96.8%
[2]; Well no.=6638
  remaining activity at 1.25 µM: 102%
[2]; Well no.=7410
  remaining activity at 1.25 µM: 98%

## N#Cc1ccc(COC[C@H]2O[C@@H](n3c(NCc4ccc(Cl)c(Cl)c4)nc4c(N)ncnc43)[C@H](O)[C@@H]2O)cc1 [VER155008]
[1]; Well no.=8816
  remaining activity at 3.75 µM: 89.6%
[2]; Well no.=8816
  remaining activity at 1.25 µM: 89.7%

## CCN(N=O)c1ccc(O)c(O)c1 [ET-3,4-dephostatin]
[1]; Well no.=598
  remaining activity at 3.75 µM: 102%
[2]; Well no.=598
  remaining activity at 1.25 µM: 100%

## Oc1ccc2ccccc2c1N=Nc1ccc(N=Nc2ccccc2)cc1 [Sudan III]
[1]; Well no.=8024
  remaining activity at 3.75 µM: 93.4%
[2]; Well no.=8024
  remaining activity at 1.25 µM: 93.7%

## C=C1C=C(C)n2nc(CC3C(=O)C[C@](CCc4cc(CC)nc(CC)c4)(C4CCCC4)OC3=O)nc2N1 (stereo partly drawn) [(6R)-6-cyclopentyl-6-(2-(2,6-diethylpyridin-4-yl)ethyl)-3-((7-methyl-5-methylene-4,5-dihydro-[1,2,4]triazolo[1,5-a]pyrimidin-2-yl)methyl)dihydro-2H-pyran-2,4(3H)-dione]
[1]; Well no.=5607
  remaining activity at 3.75 µM: 105%
[2]; Well no.=5607
  remaining activity at 1.25 µM: 102%

## Cc1ccc(S(=O)(=O)n2c(N)nc3ccccc32)cc1 [ML130]
[1]; Well no.=4829
  remaining activity at 3.75 µM: 101%
[2]; Well no.=4829
  remaining activity at 1.25 µM: 101%

## COc1cc([C@@H]2c3cc4c(cc3[C@H](O)[C@H]3COC(=O)[C@@H]23)OCO4)cc(OC)c1OC [Picropodophyllin]
[1]; Well no.=3341
  remaining activity at 3.75 µM: 98.4%
[2]; Well no.=3341
  remaining activity at 1.25 µM: 95.7%

## COC(=O)[C@H](c1ccccc1Cl)N1CCc2sccc2C1 [Clopidogrel]
[1]; Well no.=2277
  remaining activity at 3.75 µM: 93%
[2]; Well no.=2277
  remaining activity at 1.25 µM: 90.2%

## NNC(=O)c1ccc(O)cc1 [4-Hydroxybenzhydrazide]
[1]; Well no.=426
  remaining activity at 3.75 µM: 97%
[2]; Well no.=426
  remaining activity at 1.25 µM: 97.3%

## Cn1cc(C2=C(c3ccc(Cl)cc3Cl)C(=O)NC2=O)c2ccccc21 [SB 216763 - 3-(2,4-Dichlorophenyl)-4-(1-methyl-1H-indol-3-yl)-1H-pyrrole-2,5-dione]
[1]; Well no.=2442
  remaining activity at 3.75 µM: 100%
[2]; Well no.=2442
  remaining activity at 1.25 µM: 96.9%

## O=C1NC(=O)C(c2c[nH]c3ccccc23)=C1c1c[nH]c2ccccc12 [Bisindolylmaleimide IV]
[1]; Well no.=2355
  remaining activity at 3.75 µM: 99.7%
[2]; Well no.=2355
  remaining activity at 1.25 µM: 101%

## Cc1nc2n(c(=O)c1CCN1CCC(c3noc4cc(F)ccc34)CC1)CCCC2 [Risperidone]
[1]; Well no.=1306
  remaining activity at 3.75 µM: 103%
[1]; Well no.=1606
  remaining activity at 3.75 µM: 102%
[2]; Well no.=1306
  remaining activity at 1.25 µM: 103%
[2]; Well no.=1606
  remaining activity at 1.25 µM: 100%

## O=C(O)/C=C/C(=O)O [3-Aminopropionitrile fumarate]
[1]; Well no.=251
  remaining activity at 3.75 µM: 93.7%
[2]; Well no.=251
  remaining activity at 1.25 µM: 92.7%

## CN1CC[C@@]2(C)c3cc(O)ccc3N(C)[C@@H]12 [(-)-Eseroline fumarate]
[1]; Well no.=751
  remaining activity at 3.75 µM: 93.5%
[2]; Well no.=751
  remaining activity at 1.25 µM: 96.8%

## CN1C[C@H](CO)C[C@@H]2c3cccc4[nH]cc(c34)C[C@H]21 [9,10-Dihydrolysergol]
[1]; Well no.=3468
  remaining activity at 3.75 µM: 109%
[2]; Well no.=3468
  remaining activity at 1.25 µM: 108%

## COc1ccc(O)cc1 [Mequinol]
[1]; Well no.=4736
  remaining activity at 3.75 µM: 99.8%
[2]; Well no.=4736
  remaining activity at 1.25 µM: 100%

## CN1CCCC(n2nc(Cc3ccc(Cl)cc3)c3ccccc3c2=O)CC1 (stereo not drawn) [Azelastine (hydrochloride)]
[1]; Well no.=6173
  remaining activity at 3.75 µM: 105%
[2]; Well no.=6173
  remaining activity at 1.25 µM: 103%

## Cc1noc(-c2ccc(CSCCC(=O)O)cc2)c1NC(=O)OC(C)c1ccccc1Cl (stereo not drawn) [Ki16425]
[1]; Well no.=7955
  remaining activity at 3.75 µM: 96.5%
[2]; Well no.=7955
  remaining activity at 1.25 µM: 95.2%

## C=C[C@@]1(C)CC[C@H]2C(=CC[C@@H]3[C@]2(C)CCC[C@@]3(C)C(=O)O)C1 [Isopimaric Acid]
[1]; Well no.=5672
  remaining activity at 3.75 µM: 93.1%
[2]; Well no.=5672
  remaining activity at 1.25 µM: 94.1%

Source: publication PMC8286840, “Identifying SARS-CoV-2 antiviral compounds by screening for small molecule inhibitors of Nsp3 papain-like protease” (Biochemical Journal, 2021)
